{"source": "patent US7763585B2", "about": "“Methods for inhibiting tumor cell proliferation” (priority 2003, dated 2010)", "key": {"[1]": {"system": "Stat3-independent luciferase reporter (pRLSRE)", "test": "Stat3-independent renilla luciferase reporter in NIH3T3/v-Src/pRLSRE", "assay_type": "cell-based, mouse", "settings": "FIG. 4", "protocol": "FIGS. 4A-B show inhibition of Stat3-mediated gene expression in intact cells by platinum complexes. v-Src-transformed mouse fibroblasts that stably express Stat3-dependent (NIH3T3/v-Src/pLucTKS3) and Stat3-independent (NIH3T3/v-Src/pRLSRE) luciferase reporters were treated with platinum complexes for the indicated times. Cytosolic extracts were then prepared from cells for Stat3-dependent firefly luciferase activity (FIG. 4A) and Stat3-independent renilla luciferase measurements (FIG. 4B). Values are the means and S.D. of five independent assays. […]\nCytosolic lysates preparation from fibroblasts for luciferase assays or from baculovirus-infected Sf-9 insect cells have been previously described (Turkson et al., 1998; Turkson et al., 2001; Turkson et al., 1999; Zhang et al., 2000). Luciferase assays were performed as outlined in the supplier's (Promega) manual and measured with a luminometer. […]"}, "normal mouse fibroblasts": {"system": "normal mouse fibroblasts", "test": "Cell proliferation ([3H]-thymidine incorporation) of normal mouse fibroblasts", "assay_type": "cell-based", "settings": "FIG. 6; reduction in growth rate but not growth inhibitory", "protocol": "FIGS. 6A and 6B show the effects of platinum complexes on cell proliferation and viability. […] Values are the mean and S.D. of 3-4 independent determinations.\nProliferating cells were counted by phase-contrast microscopy for viable cells (using trypan blue exclusion. TUNEL staining was carried according to supplier's instructions to detect apoptotic cells. Cells (NIH3T3 or NIH3T3/v-Src) were first treated with or without compounds 24-48 h prior to staining.\nThe effects of platinum complexes on cell proliferation measured by [^3H]-thymidine incorporation were investigated."}}}
{"smiles": "[NH2][Pt]([NH2])([Cl])([Cl])([Cl])[N+](=O)[O-]", "note": "[ISS CPA-7]", "values": [{"measurement": "Induction of Stat3-independent luciferase activity", "setting": "[1]", "result": "little or no effect"}, {"measurement": "Growth of normal mouse fibroblasts ([3H]-thymidine incorporation)", "setting": "normal mouse fibroblasts", "result": "marginal effect"}]}
{"smiles": "O=[N+]([O-])[Pt]1([Cl])([Cl])([Cl])[NH]CC[NH]1", "note": "[ISS CPA-1]", "values": [{"measurement": "Induction of Stat3-independent luciferase activity", "setting": "[1]", "result": "little or no effect"}, {"measurement": "Growth of normal mouse fibroblasts ([3H]-thymidine incorporation)", "setting": "normal mouse fibroblasts", "result": "marginal effect"}]}
